{"source": "the kinase profiling compilation of Christmann-Franck et al. (2016)", "experiment_in_all_cases": "radiometric filter-binding kinase assay, Kinase HotSpot", "conditions_in_all_cases": "compound 0.5 µM; ATP 10 µM", "key": {"[1]": {"molecular_target": "AKT2 (human) (UniProt P31751)"}, "[2]": {"molecular_target": "BMX (human) (UniProt P51813)"}, "[3]": {"molecular_target": "CDK5 CDK5R1 p25 (human) (UniProt Q00535+Q15078)"}, "[4]": {"molecular_target": "CDK6 CCND3 (human) (UniProt P30281+Q00534)"}, "[5]": {"molecular_target": "CHEK1 (human) (UniProt O14757)", "sequence (O14757 whole entry, looked up)": "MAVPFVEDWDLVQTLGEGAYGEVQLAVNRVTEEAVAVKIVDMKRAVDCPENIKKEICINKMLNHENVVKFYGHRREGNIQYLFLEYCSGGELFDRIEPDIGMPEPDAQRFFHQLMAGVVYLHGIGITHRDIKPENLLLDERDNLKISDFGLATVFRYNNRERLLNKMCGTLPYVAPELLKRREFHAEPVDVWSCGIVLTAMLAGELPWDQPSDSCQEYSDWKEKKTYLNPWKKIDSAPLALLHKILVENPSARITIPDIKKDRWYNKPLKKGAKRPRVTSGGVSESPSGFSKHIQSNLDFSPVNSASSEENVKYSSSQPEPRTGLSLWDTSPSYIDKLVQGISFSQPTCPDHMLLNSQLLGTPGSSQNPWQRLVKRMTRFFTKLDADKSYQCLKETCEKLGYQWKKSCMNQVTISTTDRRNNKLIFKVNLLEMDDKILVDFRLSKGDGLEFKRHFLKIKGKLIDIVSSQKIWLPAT"}, "[6]": {"molecular_target": "CSNK1G2 (human) (UniProt P78368)"}, "[7]": {"molecular_target": "DYRK2 (human) (UniProt Q92630)"}, "[8]": {"molecular_target": "EPHA5 (human) (UniProt P54756)"}, "[9]": {"molecular_target": "EPHA7 (human) (UniProt Q15375)"}, "[10]": {"molecular_target": "EPHB3 (human) (UniProt P54753)"}, "[11]": {"molecular_target": "FYN (human) (UniProt P06241)"}, "[12]": {"molecular_target": "HCK (human) (UniProt P08631)", "sequence (P08631 whole entry, looked up)": "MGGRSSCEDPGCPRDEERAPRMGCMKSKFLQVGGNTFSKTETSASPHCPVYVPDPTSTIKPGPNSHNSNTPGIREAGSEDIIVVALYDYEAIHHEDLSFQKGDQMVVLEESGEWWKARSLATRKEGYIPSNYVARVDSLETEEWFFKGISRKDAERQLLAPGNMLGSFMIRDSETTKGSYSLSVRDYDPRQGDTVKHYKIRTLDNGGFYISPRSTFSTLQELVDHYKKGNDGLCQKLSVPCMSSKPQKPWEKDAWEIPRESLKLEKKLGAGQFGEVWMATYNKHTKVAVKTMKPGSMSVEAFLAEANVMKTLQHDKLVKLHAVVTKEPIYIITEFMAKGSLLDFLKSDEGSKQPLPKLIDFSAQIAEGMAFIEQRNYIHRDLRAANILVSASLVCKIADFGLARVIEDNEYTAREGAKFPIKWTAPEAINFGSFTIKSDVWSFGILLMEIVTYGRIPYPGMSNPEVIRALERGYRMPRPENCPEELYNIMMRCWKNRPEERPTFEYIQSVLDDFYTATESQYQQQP"}, "[13]": {"molecular_target": "HIPK3 (human) (UniProt Q9H422)"}, "[14]": {"molecular_target": "MAP3K8 (human) (UniProt P41279)"}, "[15]": {"molecular_target": "MAP4K4 (human) (UniProt O95819)"}, "[16]": {"molecular_target": "MAPK3 (human) (UniProt P27361)"}, "[17]": {"molecular_target": "MARK3 (human) (UniProt P27448)"}, "[18]": {"molecular_target": "MARK4 (human) (UniProt Q96L34)"}, "[19]": {"molecular_target": "MATK (human) (UniProt P42679)"}, "[20]": {"molecular_target": "MELK (human) (UniProt Q14680)"}, "[21]": {"molecular_target": "MET (human) (UniProt P08581)", "sequence (P08581 whole entry, looked up)": "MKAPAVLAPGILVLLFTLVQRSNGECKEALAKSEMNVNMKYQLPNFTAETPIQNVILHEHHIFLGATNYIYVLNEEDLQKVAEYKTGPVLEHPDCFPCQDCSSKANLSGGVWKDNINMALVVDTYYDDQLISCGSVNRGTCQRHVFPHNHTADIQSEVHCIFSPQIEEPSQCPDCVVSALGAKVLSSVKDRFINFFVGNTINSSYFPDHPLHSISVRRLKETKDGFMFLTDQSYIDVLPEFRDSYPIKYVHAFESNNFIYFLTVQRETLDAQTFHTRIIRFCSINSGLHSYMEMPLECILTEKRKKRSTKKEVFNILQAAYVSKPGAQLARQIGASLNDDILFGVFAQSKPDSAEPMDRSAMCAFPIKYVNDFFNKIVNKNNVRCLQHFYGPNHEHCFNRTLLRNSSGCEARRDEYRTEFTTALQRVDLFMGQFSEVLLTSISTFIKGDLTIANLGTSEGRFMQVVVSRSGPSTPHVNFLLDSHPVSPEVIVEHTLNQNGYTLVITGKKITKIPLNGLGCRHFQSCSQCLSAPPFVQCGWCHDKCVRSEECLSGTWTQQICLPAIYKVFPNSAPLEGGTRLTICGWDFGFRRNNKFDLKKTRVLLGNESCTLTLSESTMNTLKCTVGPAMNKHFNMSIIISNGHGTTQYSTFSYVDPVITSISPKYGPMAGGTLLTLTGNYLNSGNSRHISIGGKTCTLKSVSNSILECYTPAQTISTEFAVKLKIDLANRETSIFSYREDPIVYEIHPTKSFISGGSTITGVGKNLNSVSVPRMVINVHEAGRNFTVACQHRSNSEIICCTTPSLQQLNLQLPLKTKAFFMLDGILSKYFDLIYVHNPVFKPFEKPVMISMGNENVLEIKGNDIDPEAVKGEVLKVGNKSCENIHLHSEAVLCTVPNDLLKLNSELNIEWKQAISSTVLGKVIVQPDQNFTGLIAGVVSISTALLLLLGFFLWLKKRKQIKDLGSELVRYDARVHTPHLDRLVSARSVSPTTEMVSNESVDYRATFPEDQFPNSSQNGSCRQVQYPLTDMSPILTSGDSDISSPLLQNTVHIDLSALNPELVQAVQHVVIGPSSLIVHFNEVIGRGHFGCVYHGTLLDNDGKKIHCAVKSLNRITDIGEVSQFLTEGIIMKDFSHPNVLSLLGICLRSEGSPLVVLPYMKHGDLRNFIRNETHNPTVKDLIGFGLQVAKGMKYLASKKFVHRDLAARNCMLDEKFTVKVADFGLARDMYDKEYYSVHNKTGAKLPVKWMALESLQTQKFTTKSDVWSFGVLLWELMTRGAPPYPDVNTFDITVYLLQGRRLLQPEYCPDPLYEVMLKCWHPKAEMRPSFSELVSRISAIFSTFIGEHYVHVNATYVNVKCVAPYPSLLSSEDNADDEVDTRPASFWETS"}, "[22]": {"system": "MKNK1 (human), Q9BUB5 [T385D; 165-205 del]", "sequence (Q9BUB5 whole entry, looked up, stated change not applied)": "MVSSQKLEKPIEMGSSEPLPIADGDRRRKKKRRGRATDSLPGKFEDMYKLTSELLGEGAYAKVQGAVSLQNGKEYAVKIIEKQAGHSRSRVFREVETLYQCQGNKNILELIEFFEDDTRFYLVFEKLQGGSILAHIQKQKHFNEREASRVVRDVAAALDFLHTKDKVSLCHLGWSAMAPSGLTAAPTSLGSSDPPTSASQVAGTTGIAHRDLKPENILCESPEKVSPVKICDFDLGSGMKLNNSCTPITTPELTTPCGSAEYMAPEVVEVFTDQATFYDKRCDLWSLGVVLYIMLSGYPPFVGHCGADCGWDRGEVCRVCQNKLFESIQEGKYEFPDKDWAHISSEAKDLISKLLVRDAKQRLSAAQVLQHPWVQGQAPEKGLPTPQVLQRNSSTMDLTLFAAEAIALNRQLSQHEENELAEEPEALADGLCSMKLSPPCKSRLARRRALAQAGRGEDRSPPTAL"}, "[23]": {"molecular_target": "MKNK2 (human) (UniProt Q9HBH9)"}, "[24]": {"molecular_target": "MST4 (human) (UniProt Q9P289)"}, "[25]": {"molecular_target": "NEK11 (human) (UniProt Q8NG66)", "sequence (Q8NG66 whole entry, looked up)": "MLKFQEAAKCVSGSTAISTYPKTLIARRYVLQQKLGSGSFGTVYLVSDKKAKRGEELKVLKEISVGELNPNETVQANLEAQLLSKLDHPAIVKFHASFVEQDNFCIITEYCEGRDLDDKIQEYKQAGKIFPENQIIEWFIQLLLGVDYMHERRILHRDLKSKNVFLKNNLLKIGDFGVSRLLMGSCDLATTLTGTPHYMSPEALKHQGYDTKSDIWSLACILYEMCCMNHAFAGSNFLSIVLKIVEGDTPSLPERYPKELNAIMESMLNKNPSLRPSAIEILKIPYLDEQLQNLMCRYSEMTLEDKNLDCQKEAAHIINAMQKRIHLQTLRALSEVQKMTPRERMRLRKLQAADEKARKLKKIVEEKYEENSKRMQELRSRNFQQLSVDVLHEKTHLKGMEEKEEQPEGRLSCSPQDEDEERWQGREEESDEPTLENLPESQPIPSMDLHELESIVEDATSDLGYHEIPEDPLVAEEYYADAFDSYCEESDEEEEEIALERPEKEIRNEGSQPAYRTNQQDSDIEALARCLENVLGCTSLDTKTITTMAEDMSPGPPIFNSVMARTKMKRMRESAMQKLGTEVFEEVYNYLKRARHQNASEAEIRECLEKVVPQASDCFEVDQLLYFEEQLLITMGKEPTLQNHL"}, "[26]": {"molecular_target": "NUAK2 (human) (UniProt Q9H093)"}, "[27]": {"molecular_target": "PBK (human) (UniProt Q96KB5)"}, "[28]": {"molecular_target": "PIM1 (human) (UniProt P11309)"}, "[29]": {"molecular_target": "PKN1 (human) (UniProt Q16512)"}, "[30]": {"molecular_target": "PNCK (human) (UniProt Q6P2M8)"}, "[31]": {"molecular_target": "PRKCD (human) (UniProt Q05655)", "sequence (Q05655 whole entry, looked up)": "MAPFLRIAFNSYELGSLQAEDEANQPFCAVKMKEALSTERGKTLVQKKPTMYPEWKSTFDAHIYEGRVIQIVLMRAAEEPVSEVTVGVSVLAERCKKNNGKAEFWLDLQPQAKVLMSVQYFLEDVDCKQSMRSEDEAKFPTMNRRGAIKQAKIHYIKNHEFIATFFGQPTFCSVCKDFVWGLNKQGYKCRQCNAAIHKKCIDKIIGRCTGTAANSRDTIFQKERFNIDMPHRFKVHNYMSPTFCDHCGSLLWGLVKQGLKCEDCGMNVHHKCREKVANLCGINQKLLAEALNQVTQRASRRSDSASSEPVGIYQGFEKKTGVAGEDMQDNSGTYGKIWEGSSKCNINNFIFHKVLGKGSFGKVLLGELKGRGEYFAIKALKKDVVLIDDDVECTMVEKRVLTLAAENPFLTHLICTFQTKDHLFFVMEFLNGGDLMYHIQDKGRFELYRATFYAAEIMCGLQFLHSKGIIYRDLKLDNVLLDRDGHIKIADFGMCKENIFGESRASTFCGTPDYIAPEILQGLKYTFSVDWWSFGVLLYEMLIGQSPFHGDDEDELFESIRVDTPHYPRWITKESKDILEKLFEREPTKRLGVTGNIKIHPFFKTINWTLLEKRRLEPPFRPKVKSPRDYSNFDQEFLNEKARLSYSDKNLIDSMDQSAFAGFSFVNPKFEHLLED"}, "[32]": {"molecular_target": "PRKCH (human) (UniProt P24723)"}, "[33]": {"molecular_target": "PRKX (human) (UniProt P51817)", "sequence (P51817 whole entry, looked up)": "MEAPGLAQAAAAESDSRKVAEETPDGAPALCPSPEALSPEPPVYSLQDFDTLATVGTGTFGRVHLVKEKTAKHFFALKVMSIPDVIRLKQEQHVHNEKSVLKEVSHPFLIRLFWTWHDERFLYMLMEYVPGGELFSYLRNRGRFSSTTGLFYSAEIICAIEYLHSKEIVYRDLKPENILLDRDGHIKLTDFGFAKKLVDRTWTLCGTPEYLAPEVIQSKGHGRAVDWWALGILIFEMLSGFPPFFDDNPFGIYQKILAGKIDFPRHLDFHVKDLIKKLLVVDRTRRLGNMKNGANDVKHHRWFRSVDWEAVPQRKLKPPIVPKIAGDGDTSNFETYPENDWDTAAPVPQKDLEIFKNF"}, "[34]": {"molecular_target": "ROCK1 (human) (UniProt Q13464)"}, "[35]": {"molecular_target": "RPS6KA1 KD1 KD2 (human) (UniProt Q15418)"}, "[36]": {"molecular_target": "RPS6KA2 KD1 KD2 (human) (UniProt Q15349)"}, "[37]": {"molecular_target": "STK10 (human) (UniProt O94804)"}, "[38]": {"molecular_target": "STK11 (human) (UniProt Q15831)"}, "[39]": {"molecular_target": "STK17A (human) (UniProt Q9UEE5)", "sequence (Q9UEE5 whole entry, looked up)": "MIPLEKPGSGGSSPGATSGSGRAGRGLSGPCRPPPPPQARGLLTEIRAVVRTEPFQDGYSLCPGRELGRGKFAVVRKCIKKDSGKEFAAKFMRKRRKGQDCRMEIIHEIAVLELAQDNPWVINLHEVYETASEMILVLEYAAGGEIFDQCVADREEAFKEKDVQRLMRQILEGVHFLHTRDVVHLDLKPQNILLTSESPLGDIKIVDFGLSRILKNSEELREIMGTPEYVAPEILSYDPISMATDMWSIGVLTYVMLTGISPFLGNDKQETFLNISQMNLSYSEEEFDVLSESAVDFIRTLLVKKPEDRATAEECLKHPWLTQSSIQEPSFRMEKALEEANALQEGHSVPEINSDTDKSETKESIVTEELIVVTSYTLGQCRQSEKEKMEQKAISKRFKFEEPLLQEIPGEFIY"}, "[40]": {"molecular_target": "TSSK2 (human) (UniProt Q96PF2)"}, "[41]": {"molecular_target": "TYK2 JH1 catalytic (human) (UniProt P29597)"}, "[42]": {"molecular_target": "VRK1 (human) (UniProt Q99986)"}}}
{"smiles": "Cc1cncc2cccc(S(=O)(=O)N3CCCN(C(=O)CN)C[C@H]3C)c12", "values": [{"measurement": "residual activity", "setting": "[1]", "value": 97.2, "unit": "%"}, {"measurement": "residual activity", "setting": "[2]", "value": 94, "unit": "%"}, {"measurement": "residual activity", "setting": "[3]", "value": 94.1, "unit": "%"}, {"measurement": "residual activity", "setting": "[4]", "value": 104, "unit": "%"}, {"measurement": "residual activity", "setting": "[5]", "value": 100, "unit": "%"}, {"measurement": "residual activity", "setting": "[6]", "value": 95.1, "unit": "%"}, {"measurement": "residual activity", "setting": "[7]", "value": 101, "unit": "%"}, {"measurement": "residual activity", "setting": "[8]", "value": 95.1, "unit": "%"}, {"measurement": "residual activity", "setting": "[9]", "value": 90.7, "unit": "%"}, {"measurement": "residual activity", "setting": "[10]", "value": 99.6, "unit": "%"}, {"measurement": "residual activity", "setting": "[11]", "value": 94.2, "unit": "%"}, {"measurement": "residual activity", "setting": "[12]", "value": 96.4, "unit": "%"}, {"measurement": "residual activity", "setting": "[13]", "value": 105, "unit": "%"}, {"measurement": "residual activity", "setting": "[14]", "value": 99.9, "unit": "%"}, {"measurement": "residual activity", "setting": "[15]", "value": 87.6, "unit": "%"}, {"measurement": "residual activity", "setting": "[16]", "value": 103, "unit": "%"}, {"measurement": "residual activity", "setting": "[17]", "value": 98.9, "unit": "%"}, {"measurement": "residual activity", "setting": "[18]", "value": 95.7, "unit": "%"}, {"measurement": "residual activity", "setting": "[19]", "value": 94.4, "unit": "%"}, {"measurement": "residual activity", "setting": "[20]", "value": 83, "unit": "%"}, {"measurement": "residual activity", "setting": "[21]", "value": 104, "unit": "%"}, {"measurement": "residual activity", "setting": "[22]", "value": 90.5, "unit": "%"}, {"measurement": "residual activity", "setting": "[23]", "value": 83.8, "unit": "%"}, {"measurement": "residual activity", "setting": "[24]", "value": 107, "unit": "%"}, {"measurement": "residual activity", "setting": "[25]", "value": 84.2, "unit": "%"}, {"measurement": "residual activity", "setting": "[26]", "value": 125, "unit": "%"}, {"measurement": "residual activity", "setting": "[27]", "value": 98.6, "unit": "%"}, {"measurement": "residual activity", "setting": "[28]", "value": 105, "unit": "%"}, {"measurement": "residual activity", "setting": "[29]", "value": 25.3, "unit": "%"}, {"measurement": "residual activity", "setting": "[30]", "value": 101, "unit": "%"}, {"measurement": "residual activity", "setting": "[31]", "value": 22.4, "unit": "%"}, {"measurement": "residual activity", "setting": "[32]", "value": 34.4, "unit": "%"}, {"measurement": "residual activity", "setting": "[33]", "value": 54.2, "unit": "%"}, {"measurement": "residual activity", "setting": "[34]", "value": 3.44, "unit": "%"}, {"measurement": "residual activity", "setting": "[35]", "value": 90.4, "unit": "%"}, {"measurement": "residual activity", "setting": "[36]", "value": 89.2, "unit": "%"}, {"measurement": "residual activity", "setting": "[37]", "value": 42, "unit": "%"}, {"measurement": "residual activity", "setting": "[38]", "value": 86.5, "unit": "%"}, {"measurement": "residual activity", "setting": "[39]", "value": 93.5, "unit": "%"}, {"measurement": "residual activity", "setting": "[40]", "value": 99.6, "unit": "%"}, {"measurement": "residual activity", "setting": "[41]", "value": 86.6, "unit": "%"}, {"measurement": "residual activity", "setting": "[42]", "value": 102, "unit": "%"}]}
{"smiles": "Fc1ccc(-c2nc3n(c2-c2ccncc2)CCS3)cc1", "values": [{"measurement": "residual activity", "setting": "[1]", "value": 95.9, "unit": "%"}, {"measurement": "residual activity", "setting": "[2]", "value": 104, "unit": "%"}, {"measurement": "residual activity", "setting": "[3]", "value": 98.2, "unit": "%"}, {"measurement": "residual activity", "setting": "[4]", "value": 108, "unit": "%"}, {"measurement": "residual activity", "setting": "[5]", "value": 95.9, "unit": "%"}, {"measurement": "residual activity", "setting": "[6]", "value": 76.4, "unit": "%"}, {"measurement": "residual activity", "setting": "[7]", "value": 101, "unit": "%"}, {"measurement": "residual activity", "setting": "[8]", "value": 89.7, "unit": "%"}, {"measurement": "residual activity", "setting": "[9]", "value": 76.3, "unit": "%"}, {"measurement": "residual activity", "setting": "[10]", "value": 96.1, "unit": "%"}, {"measurement": "residual activity", "setting": "[11]", "value": 108, "unit": "%"}, {"measurement": "residual activity", "setting": "[12]", "value": 101, "unit": "%"}, {"measurement": "residual activity", "setting": "[13]", "value": 109, "unit": "%"}, {"measurement": "residual activity", "setting": "[14]", "value": 88.1, "unit": "%"}, {"measurement": "residual activity", "setting": "[15]", "value": 72.3, "unit": "%"}, {"measurement": "residual activity", "setting": "[16]", "value": 103, "unit": "%"}, {"measurement": "residual activity", "setting": "[17]", "value": 88.9, "unit": "%"}, {"measurement": "residual activity", "setting": "[18]", "value": 106, "unit": "%"}, {"measurement": "residual activity", "setting": "[19]", "value": 89.4, "unit": "%"}, {"measurement": "residual activity", "setting": "[20]", "value": 102, "unit": "%"}, {"measurement": "residual activity", "setting": "[21]", "value": 92.7, "unit": "%"}, {"measurement": "residual activity", "setting": "[22]", "value": 102, "unit": "%"}, {"measurement": "residual activity", "setting": "[23]", "value": 84.9, "unit": "%"}, {"measurement": "residual activity", "setting": "[24]", "value": 109, "unit": "%"}, {"measurement": "residual activity", "setting": "[25]", "value": 71.4, "unit": "%"}, {"measurement": "residual activity", "setting": "[26]", "value": 135, "unit": "%"}, {"measurement": "residual activity", "setting": "[27]", "value": 100, "unit": "%"}, {"measurement": "residual activity", "setting": "[28]", "value": 104, "unit": "%"}, {"measurement": "residual activity", "setting": "[29]", "value": 101, "unit": "%"}, {"measurement": "residual activity", "setting": "[30]", "value": 90.3, "unit": "%"}, {"measurement": "residual activity", "setting": "[31]", "value": 99.1, "unit": "%"}, {"measurement": "residual activity", "setting": "[32]", "value": 87.4, "unit": "%"}, {"measurement": "residual activity", "setting": "[33]", "value": 97.6, "unit": "%"}, {"measurement": "residual activity", "setting": "[34]", "value": 103, "unit": "%"}, {"measurement": "residual activity", "setting": "[35]", "value": 100, "unit": "%"}, {"measurement": "residual activity", "setting": "[36]", "value": 97.1, "unit": "%"}, {"measurement": "residual activity", "setting": "[37]", "value": 94.9, "unit": "%"}, {"measurement": "residual activity", "setting": "[38]", "value": 93.8, "unit": "%"}, {"measurement": "residual activity", "setting": "[39]", "value": 99.4, "unit": "%"}, {"measurement": "residual activity", "setting": "[40]", "value": 93.2, "unit": "%"}, {"measurement": "residual activity", "setting": "[41]", "value": 107, "unit": "%"}, {"measurement": "residual activity", "setting": "[42]", "value": 86.8, "unit": "%"}]}
